Source: patent publication US20110098223A1, “USE OF THE PAT NANOPEPTIDE IN THE TREATMENT OF AUTOIMMUNE DISEASES” (priority 2008, published 2011)

Test system: Rats of OFA (SD) strain
Assay: Arthritis induced by Freund's adjuvant (Mycobacterium butyricum) in the rat
Format: in vivo
Experimental: We used the model of arthritis induced by Freund' adjuvant as described in the article of Milan et al., J Neurosci 1986; 6: 899-906. The rats are administered with Mycobacterium butyricum develop usually a severe polyarthritis which resembles to that in human. Rats of OFA (SD) strain (Oncins France Strain A) weighing approximately 200 g received an […] of a 10 mg/ml Mycobacterium butyricum solution at the articulation of the right ankle. For all the measured parameters, the rats were divided into 5 groups (8 rats/group) in the following way: • reference group: the rats received a paraffin injection instead of the solution of Mycobacterium butyricum (no induced arthritis) then receive an intraperitoneal injection of saline solution; • arthritic group+injection of saline solution; • arthritic group+intraperitoneal injection of 3 mg/kg indomethacin; the indomethacin being a NSAID classically used as reference in this kind of test; • arthritic group+intraperitoneal injection of […]; • arthritic group+intraperitoneal injection of […]. The products are administered 5 times per week during 3 weeks. At the beginning of the experimentation (day 0), one determines the initial values for the different parameters (volume of the leg, macroscopic clinical score, sedimentation test and hypersensitivity). During the experiment, several parameters are measured: • the volume of the leg (“paw latency duration”); • the globular sedimentation test (“Erythrocyte Sedimentation rate”); • the macroscopic score: • “0” means that no sign of arthritis was detected; • “1” means that a swelling or an inflammation was detected on a leg; • “2” means that a swelling or an inflammation was detected on two legs; • “3” means that a swelling or an inflammation was detected on at lest 3 legs; • “4” means that a swelling or an inflammation was detected on the 4 legs. • hypersensitivity according to the plantar test: carried out according to Yukinori Nagakura and al, Allodynia and hyperalgesia in adjuvant-induced arthritic rats: time course of progression and efficacy of analgesics, JPET 306: 490-497, 2003, or in Andersen M L and al “Evaluation of acute and chronic treatments with Harpagophytum procumbens one Freund's adjuvant-induced arthritis in rats”. J. Ethnopharmacol. 2004 April; 91 (2-3): 325-30; • the erythrocyte sedimentation rate (ESR): the increase in this one generally accompanies the clinical symptoms met in induced arthritis. The ESR is measured in the arthritic rats (at Day 21) 1 hour and 2 hours after the injection of PAT or indomethacin, according to the protocol of Mahajan S G, et al., Protective Effect of Ethanolic Extract of Seeds of Moringa will oleifera Lam. Against Inflammation Associated with Development of Arthritis in Rats. J. Immunotoxicol. 2007 January; 4 (1): 39-47.

COc1ccc2c(c1)c(CC(=O)O)c(C)n2C(=O)c1ccc(Cl)cc1 [indomethacin] was tested, and the “hypersensitivity measured by the plantar test” value (Day 16, PAT at the 2 doses, indomethacin, equivalent to the non-arthritic reference group, FIG. 6) was “very reduced”, the “erythrocyte sedimentation rate (ESR)” value (arthritic rats, Day 21, FIG. 7) was “reduced in a very important way” and the clinical macroscopic score (compared to arthritic rats which received saline solution, until Day 21, FIG. 5) was “significant reduction”. The “volume of the leg” value (during the first 12 days, PAT 0.4 and 4 μg/kg i.p., indomethacin 3 mg/kg i.p., 5 times per week, FIG. 4) was “do not have a notable effect” and the “inflammation and volume of the leg” value (from Day 14 until Day 21, PAT 0.4 and 4 μg/kg i.p., indomethacin 3 mg/kg i.p., FIG. 4) was “notable reduction”.
